Measurements reported in patent US9567329B2, “High penetration prodrug compositions of 1H-imidazo[4,5-c]quinolin-4-amines and 1H-imidazo[4,5-c]quinolin-4-amine-related compounds and uses thereof” (Techfields Pharma Co., Ltd, priority 2007, dated 2017).

Key:
[1] = test system: herpes simplex virus Type II; test: Anti-Herpes activity, treated for 5 days, first treatment 5 days after HSV infection; assay type: in vivo; conditions: guinea pigs
Description: (§1) The evaluation of anti-Herpes activity of these prodrugs was carried out using the method described by Kern, et al. [Antimicrob. Agents Chemother. 14, 817, (1978)].
(§2) In the third experiment, female guinea pigs (n=10) were anesthetized. The guinea pigs were then infected with herpes simplex virus (type I or Type II, about 10^5 plaque forming units were used) intravaginally using a cotton swab. […] External lesions were scored daily for ten days using the following scale: 0, no lesion; 1, redness and swelling; 2, a few small vesicles; 3, several large vesicles; 4, large ulcers and necrosis; and 5, paralysis. The percent Lesion Inhibition was calculated as follows: 100−[(Sum of maximum lesion scores of treated group divided by the Sum of the scores of infected control)×100] (Table 7).

[2] = test system: herpes simplex virus Type I; test: as above; assay type: in vivo; conditions: guinea pigs
Description: as §1, §2

[3] = test system: Human breast cancer cells (BCAP-37)
Source text: Human breast cancer cells (BCAP-37, 3-4 mm^3 of tumor tissue was used in each mouse) were subcutaneously xenografted into nude mice (BALB).

interferon production [4] = test: Interferon inducing activity in guinea pigs (serum protection of fibroblasts from mengovirus); assay type: in vivo; conditions: serum 18 hours after treatment
[5] = test system: herpes simplex virus Type II; test: Anti-Herpes activity, treated for 5 days, first treatment just after HSV infection; assay type: in vivo; conditions: guinea pigs
Description: as §1
(§3) In the second experiment, female guinea pigs (n=10) were anesthetized. Herpes simplex virus (Type I or Type II, about 10^5 plaque forming units were used) was applied intravaginally to the guinea pigs using a cotton swab. […] Virus replication was monitored by determining the amount of virus recovered with vaginal swabs taken on day 7 after infection. External lesions were scored daily for ten days using the following scale: 0, no lesion; 1, redness and swelling; 2, a few small vesicles; 3, several large vesicles; 4, large ulcers and necrosis; and 5, paralysis. The percent Lesion Inhibition was calculated as follows: 100−[(Sum of maximum lesion scores of treated group divided by the Sum of the scores of infected control)×100] (Table 6).

[6] = test system: herpes simplex virus Type I; test: as above; assay type: in vivo; conditions: guinea pigs
Description: as §1, §3

[7] = test system: herpes simplex virus Type II; test: Anti-Herpes activity, treated for 3 days before HSV infection; assay type: in vivo; conditions: guinea pigs
Description: (§4) The evaluation of anti-Herpes activity of these prodrugs was carried out using the method described by Kern, et al. [Antimicrob. Agents Chemother. 14, 817, (1978)]. In each experiment, female guinea pigs (n=10) were anesthetized. […] Virus replication was monitored by determining the amount of virus recovered with vaginal swabs taken on day 7 after infection. […] The percent Lesion Inhibition was calculated as follows: 100-[(Sum of maximum lesion scores of treated group divided by the Sum of the scores of infected control)×100] (Table 5).

[8] = test system: herpes simplex virus Type I; test: as above; assay type: in vivo; conditions: guinea pigs
Description: as §4

[9] = test system: Human breast cancer cells (BCAP-37); test: Antitumor activity, breast cancer xenograft, topical treatment from day 1; conditions: 50 μl of 3% topically once per day from day 1; after 28 days
Source text: Human breast cancer cells (BCAP-37, 4-5 mm^3 of tumor tissue was used in each mouse) were subcutaneous xenografted into nude mice (BALB).

interferon production [10] = test: Interferon inducing activity in guinea pigs (serum protection of fibroblasts from mengovirus); assay type: in vivo; conditions: serum 18 hours after treatment; remark: listed apart in the source
Description: Without being bound by any mechanism, the ability to induce interferon production of the pro-drugs of the invention was evaluated in guinea pigs (n=10). Untreated guinea pigs provided controls.
Each test drug was administered to real back skin of a guinea pig at a specific dose of about 0.5-4.5 mg/kg respectively.
Each treated and control guinea pig was bled 18 hours after drug treatment and its serum was assayed for interferon activity. The serum was diluted and incubated with guinea pig fibroblast cells at 37° C. overnight in 96 well microtiter plates. The incubated cells were then challenged with an inoculum of mengovirus that was sufficient to kill untreated cells in two days. Two days after such challenge, the cells were examined both microscopically and after staining with crystal violet to determine whether the cells remained intact.
Table 4 contains the results of the study with activity/ml indicating the highest dilute on of serum that protected cells from virus challenge. Untreated guinea pigs provided controls.

[11] = In vitro penetration rate across human skin in modified Franz cells; assay type: in vitro ADME; conditions: for In vitro Penetration Rate of HPPs (apparent flux): 3% solution in ethanol/pH 7.4 phosphate buffer (0.2 M) 70/30
Description: Penetration rates of HPPs and their parent drugs through human skin were measured in vitro by modified Franz cells. A Franz cell had two chambers, the top sample chamber and the bottom receiving chamber. The human skin tissue (360-400 μm thick) that separated the top and the receiving chambers was isolated from the anterior or posterior thigh areas.
A compound tested (0.5 mL, 3% in a mixture of ethanol and phosphate buffer (0.2M, pH 7.4) (v/v, 70/30)) was added to the sample chamber of a Franz cell. The receiving chamber contains 2 ml of 2% bovine serum albumin in saline which was stirred at 600 rpm. The amount of the tested compound penetrating the skin was determined by high-performance liquid chromatography (HPLC) method.
The lowest detectable apparent flux values in this method was 1 μg/cm^2/h.

[12] = test system: Human colon cancer cells (LS174J); test: Antitumor activity, colon cancer xenograft, topical treatment from day 1; conditions: 50 μl of 3% topically twice per day from day 1; after 28 days
Source text: Human colon cancer cells (LS174J, 4-5 mm^3 of tumor tissue was used in each mouse) were subcutaneously xenografted into nude mice (BALB).

[13] = Conversion of HPPs to parent drugs in human plasma (half life); assay type: in vitro ADME; conditions: 37° C.
Description: HPPs of 1H-imidazo[4,5-c]quinolin-4-amines or 1H-imidazo[4,5-c]quinolin-4-amine-related compounds converted to the parent 1H-imidazo[4,5-c]quinolin-4-amines or 1H-imidazo[4,5-c]quinolin-4-amine-related compounds quickly in good yield in human plasma.
A HPP of 1H-imidazo[4,5-c]quinolin-4-amines or 1H-imidazo[4,5-c]quinolin-4-amine-related compound (0.05 mg) was dissolved in 0.1 ml of 0.2M pH 7.4 phosphate buffer. 1 ml of human plasma, preheated to 37° C., was added into the mixture. The mixture was kept in a water bath at 37° C., and at every 10 min intervals 0.2 ml of samples were withdrawn and added to 0.4 ml of methanol to precipitate the plasma protein. The samples were centrifuged for 5 min and analyzed by HPLC.

[14] = Irritative effect or discomfort on skin of nude mice after topical application; assay type: in vivo; conditions: 0.1 ml of 3% in pH 7.4 phosphate buffer, back of nude mice, twice per day, 1 week
Description: Irritative effect or discomfort in the skin of mice of HPPs of 1H-imidazo[4,5-c]quinolin-4-amines or 1H-imidazo[4,5-c]quinolin-4-amine-related compounds was evaluated during a period of 1 week after the topical application of 0.1 ml of 3% of the respective test drug in pH 7.4 phosphate buffer (0.2 M) to the back of nude mice twice per day.

[15] = 0.5 mg/kg once per day for 5 days
[16] = 1.5 mg/kg once per day for 5 days
[17] = 4.5 mg/kg once per day for 5 days
[18] = at day 42, treatment from day 21 (tumors 13±2 mm×12±3 mm), 50 μl of 3% topically once per day
[19] = 0.5 mg/kg once per day for 3 days before HSV infection
[20] = 1.5 mg/kg once per day for 3 days before HSV infection
[21] = 4.5 mg/kg once per day for 3 days before HSV infection

## CC(C)Cn1cnc2c(N)nc3ccccc3c21.Cl [1-isobutyl-1H-imidazo[4,5-c]quinolin-4-amine hydrochloride, reference compound]
[1]; [15]
  % Lesion inhibition of the parent drug, intravaginal, Herpes type II: 2%
  % Lesion inhibition of the parent drug, transdermal, Herpes type II: 2%
[1]; [16]
  % Lesion inhibition of the parent drug, intravaginal, Herpes type II: 2%
  % Lesion inhibition of the parent drug, transdermal, Herpes type II: 2%
[1]; [17]
  % Lesion inhibition of the parent drug, intravaginal, Herpes type II: 44%
  % Lesion inhibition of the parent drug, transdermal, Herpes type II: 24%
[2]; [15]
  % Lesion inhibition of the parent drug, intravaginal, Herpes type I: 2%
  % Lesion inhibition of the parent drug, transdermal, Herpes type I: 2%
[2]; [16]
  % Lesion inhibition of the parent drug, intravaginal, Herpes type I: 2%
  % Lesion inhibition of the parent drug, transdermal, Herpes type I: 2%
[2]; [17]
  % Lesion inhibition of the parent drug, intravaginal, Herpes type I: 37%
  % Lesion inhibition of the parent drug, transdermal, Herpes type I: 22%
[3]; [18]
  tumor size, first dimension: 17±2 mm
  tumor size, second dimension: 15±2 mm
[3]; up to day 70, 50 μl of 3% topically once per day from day 21
  death of mice: all mice died by day 70
Interferon production [4]; 0.5 mg/kg once
  Interferon level of the parent drug, intravaginal: 385 activity/ml
Interferon production [4]; 1.5 mg/kg once
  Interferon level of the parent drug, intravaginal: 2,982 activity/ml
Interferon production [4]; 4.5 mg/kg once
  Interferon level of the parent drug, intravaginal: 28,982 activity/ml
[5]; [15]
  % Lesion inhibition of the parent drug, intravaginal, Herpes type II: 2%
  % Lesion inhibition of the parent drug, transdermal, Herpes type II: 2%
[5]; [16]
  % Lesion inhibition of the parent drug, intravaginal, Herpes type II: 21%
  % Lesion inhibition of the parent drug, transdermal, Herpes type II: 6%
[5]; [17]
  % Lesion inhibition of the parent drug, intravaginal, Herpes type II: 82%
  % Lesion inhibition of the parent drug, transdermal, Herpes type II: 54%
[6]; [15]
  % Lesion inhibition of the parent drug, intravaginal, Herpes type I: 2%
  % Lesion inhibition of the parent drug, transdermal, Herpes type I: 2%
[6]; [16]
  % Lesion inhibition of the parent drug, intravaginal, Herpes type I: 17%
  % Lesion inhibition of the parent drug, transdermal, Herpes type I: 7%
[6]; [17]
  % Lesion inhibition of the parent drug, intravaginal, Herpes type I: 78%
  % Lesion inhibition of the parent drug, transdermal, Herpes type I: 52%
[7]; [19]
  % Lesion inhibition of the parent drug, intravaginal, Herpes type II: 5%
  % Lesion inhibition of the parent drug, transdermal, Herpes type II: 2%
[7]; [20]
  % Lesion inhibition of the parent drug, intravaginal, Herpes type II: 28%
  % Lesion inhibition of the parent drug, transdermal, Herpes type II: 2%
[7]; [21]
  % Lesion inhibition of the parent drug, intravaginal, Herpes type II: 87%
  % Lesion inhibition of the parent drug, transdermal, Herpes type II: 48%
[8]; [19]
  % Lesion inhibition of the parent drug, intravaginal, Herpes type I: 4%
  % Lesion inhibition of the parent drug, transdermal, Herpes type I: 2%
[8]; [20]
  % Lesion inhibition of the parent drug, intravaginal, Herpes type I: 23%
  % Lesion inhibition of the parent drug, transdermal, Herpes type I: 3%
[8]; [21]
  % Lesion inhibition of the parent drug, intravaginal, Herpes type I: 85%
  % Lesion inhibition of the parent drug, transdermal, Herpes type I: 45%
[9]
  Tumor size, Human breast cancer, first dimension: 12 ± 2 mm ×
  Tumor size, Human breast cancer, second dimension: 11 ± 2 mm
  tumor incidence, human breast cancer: 100%
Interferon production [10]; 0.5 mg/kg once
  Interferon level of the parent drug, transdermal: 198 activity/ml
Interferon production [10]; 1.5 mg/kg once
  Interferon level of the parent drug, transdermal: 776 activity/ml
Interferon production [10]; 4.5 mg/kg once
  Interferon level of the parent drug, transdermal: 2,785 activity/ml
[11]; 3% suspension in ethanol/pH 7.4 phosphate buffer (0.2 M) 70/30
  In vitro Penetration Rate of Parent compounds (apparent flux): 0.005 mg/cm^2/h
[12]
  Tumor size, Human colon cancer, first dimension: 17 ± 2 mm ×
  Tumor size, Human colon cancer, second dimension: 15 ± 2 mm
  tumor incidence, human colon cancer: 100%

## CCCCn1cnc2c(NC(=O)CNC)nc3ccccc3c21.Cl [sarcosine 1-butyl-1H-imidazo[4,5-c]quinolin-4-amide hydrochloride]
[13]
  Half life of HPPs in plasma: 25 ± 2 min
[14]
  signs of irritative effect or discomfort in the skin: None of any signs of irritative effect or discomfort was observed
[11]
  In vitro Penetration Rate of HPPs (apparent flux): 0.13 mg/cm^2/h

## sarcosine 1-benzyl-1H-imidazo[4,5-c]quinolin-4-amide hydrochloride
[13]
  Half life of HPPs in plasma: 29 ± 1 min
[14]
  signs of irritative effect or discomfort in the skin: None of any signs of irritative effect or discomfort was observed
[11]
  In vitro Penetration Rate of HPPs (apparent flux): 0.16 mg/cm^2/h
